Laboratory results published in paper PMC10434032 (Microbiology Spectrum, 2023).
Like-named read-outs stand apart in the source and are kept apart here.

Key:
MPXV [1] = format: cell-based, Mpox virus
[2] = tested on: MPXV Liberia strain (West African strain, clade IIa); format: cell-based, Mpox virus
[3] = tested on: MPXV SPL-mpx2A7 strain (clade IIb); format: cell-based, Mpox virus
vaccinia virus (LC16m8) = format: cell-based
[4] = tested on: cowpox virus (Brighton Red); format: cell-based
MPXV [5] = assay: microbe, parasite or virus in culture; format: cell-based, Mpox virus; conditions: Monkeypox virus; for IC50: Vero C1008, read-out: Anti-MPXV activity: IC50; for IC90: Vero C1008, read-out: Anti-MPXV activity: IC90
MPXV [6] = format: cell-based, Mpox virus; remark: listed apart in the source
MPXV [7] = format: cell-based, Mpox virus; remark: listed apart in the source
in vitro [8] = conditions: African green monkey
[9] = tested on: MPXV Zr-599 (Congo Basin strain, clade I); format: cell-based, Mpox virus
MPXV [10] = assay: microbe, parasite or virus in culture; format: cell-based, Mpox virus; conditions: for IC50 / IC90: Monkeypox virus, Huh-7, 24 h; for IC50: read-out: Anti-MPXV activity: IC50; for IC90: read-out: Anti-MPXV activity: IC90
in vitro [11] = conditions: human
MPXV [12] = format: cell-based, Mpox virus; remark: listed apart in the source
ISG15 and ISG56 = format: cell-based, human

| Molecule | MPXV protein expression (immunofluorescence) (MPXV [1]) | expression of viral proteins (immunofluorescence) [2] | expression of viral proteins (immunofluorescence) [3] | expression of viral proteins (immunofluorescence) (vaccinia virus (LC16m8)) | expression of viral proteins (immunofluorescence) [4] | IC50 (MPXV [5]) [nM] | IC90 (MPXV [5]) [nM] | antiviral activity by treatment period (a whole life cycle 0-24 h, b entry phase 0-2 h, c postentry 2-24 h) (MPXV [6]) | virions observed in cells by electron microscopy (MPXV [7]) | CC50 (in vitro [8]) [nM] | IC50 (MPXV [10]) [nM] | IC90 (MPXV [10]) [nM] | CC50 (in vitro [11]) [nM] | also measured |
| --- | --- | --- | --- | --- | --- | --- | --- | --- | --- | --- | --- | --- | --- | --- |
| O=c1[nH]c(=O)n([C@H]2C[C@H](O)[C@@H](CO)O2)cc1C(F)(F)F [trifluridine] | drastically reduced | clearly reduced | clearly reduced | clearly reduced | clearly reduced | 490 | 890 | significantly reduced under conditions a and c but not under condition b | few virions were observed | > 100000 |  |  |  |  |
| Nc1ccn([C@@H]2O[C@H](CO)[C@@H](O)C2(F)F)c(=O)n1 [gemcitabine] | drastically reduced | clearly reduced | clearly reduced | clearly reduced | clearly reduced | 24 | 26 | significantly reduced under conditions a and c but not under condition b | few virions were observed | > 100000 |  |  |  |  |
| O=C(NN1C(=O)[C@@H]2[C@@H]3C=C[C@@H]([C@H]4C[C@@H]34)[C@@H]2C1=O)c1ccc(C(F)(F)F)cc1 [tecovirimat] |  |  |  |  |  |  |  |  | crescents, immature, and mature virions but not wrapped virions were observed |  |  |  |  | number of surviving cells (fold relative to DMSO-treated control cells) [9]: 223 fold |
| COc1cc(NC(=O)Nc2cccc(CNC(=O)O[C@H]3CCOC3)c2)ccc1-c1cnco1 [Merimepodib, merimepodib] |  |  |  |  |  |  |  |  |  |  | 290 | 610 | > 10000 |  |
| heparin |  |  |  |  |  |  |  | significant antiviral activity under condition b |  |  |  |  |  |  |
| CC[C@H](CC#N)OC(=O)N[C@@H](C)c1cccc(NC(=O)Nc2ccc(-c3cnco3)c(OC)c2)c1 [AVN-944] |  |  |  |  |  |  |  |  |  |  | 15 | 42 | > 10000 |  |
| COc1c(C)c2c(c(O)c1C/C=C(\C)CCC(=O)O)C(=O)OC2 [MPA, mycophenolic acid] | drastically reduced | clearly reduced | clearly reduced | clearly reduced | clearly reduced | 260 | 370 | significantly reduced under conditions a and c but not under condition b | few virions were observed | > 100000 | 940 | 3350 | > 10000 | selectivity index (SI = CC50/IC50) (MPXV [10]): > 10.6; effect of guanosine supplementation on MPA-mediated reduction of viral DNA levels (MPXV [12]): clearly recovered the MPA-mediated reduction of viral DNA levels in a dose-dependent manner; induction of interferon-stimulated genes ISG15 and ISG56 (ISG15 and ISG56): did not observe significant induction |
| NC(=O)c1ncn([C@@H]2O[C@H](CO)[C@@H](O)[C@H]2O)n1 [Ribavirin, ribavirin] |  |  |  |  |  |  |  |  |  |  | 13000 | 44000 | > 100000 |  |
| CCCCCCCCCCCCCCCCOCCCOP(=O)(O)CO[C@H](CO)Cn1ccc(N)nc1=O [brincidofovir] |  |  |  |  |  | 2100 | 4290 | significant antiviral activity in conditions a and c but not in condition b |  | > 10000 |  |  |  | number of surviving cells (fold relative to DMSO-treated control cells) [9]: 103 fold |
| COc1c(C)c2c(c(O)c1C/C=C(\C)CCC(=O)OCCN1CCOCC1)C(=O)OC2 [Mycophenolate mofetil, mycophenolate mofetil] |  |  |  |  |  |  |  |  |  |  | 340 | 1080 | > 10000 |  |
